Laboratory results: patent US7741020B2, “Methods for detecting Lp-PLA2 activity and inhibition of Lp-PLA2 activity” (Glaxo Group Limited, priority 2004, dated 2010)
Values joined by “and” are separate entries in the source; they are usually repeats but may differ in a detail not shown here. Equal entries are not always repeated.

Experiments:
Lp-PLA2 [1] = molecular target: T1, Lp-PLA2 (Homo sapiens, UniProt Q13093); assay: Modified drug-sensitive colorimetric assay, plasma; format: biochemical; details: plasma of individual human subjects
T1 sequence (Q13093 22-441): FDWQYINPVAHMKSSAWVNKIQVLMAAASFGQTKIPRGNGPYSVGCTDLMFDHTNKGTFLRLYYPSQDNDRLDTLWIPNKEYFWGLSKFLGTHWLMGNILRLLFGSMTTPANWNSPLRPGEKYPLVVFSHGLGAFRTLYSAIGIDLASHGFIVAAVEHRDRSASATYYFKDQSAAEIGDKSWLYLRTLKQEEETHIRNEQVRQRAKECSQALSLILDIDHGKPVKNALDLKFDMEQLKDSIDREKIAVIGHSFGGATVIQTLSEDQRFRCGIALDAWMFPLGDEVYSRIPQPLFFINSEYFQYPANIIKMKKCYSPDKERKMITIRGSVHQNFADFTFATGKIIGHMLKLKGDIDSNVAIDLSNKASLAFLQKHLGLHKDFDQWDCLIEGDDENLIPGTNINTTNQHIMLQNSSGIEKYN
Excerpt: Assay Procedure • 1. […] Use duplicates for each sample. • 4.
Pre-dose plasma samples for each subject on day 0 of the study were also available.

Lp-PLA2 [2] = molecular target: T1, Lp-PLA2; assay: High throughput radiometric assay for Lp-PLA2 activity (3H-PAF); format: biochemical; details: plasma of individual human subjects
Experimental: (cat #6005162) Reagents • HEPES (4-(2-hydroxyethyl)-1-piperazineethane sulfonic acid) Sigma Chemical Co., St. Louis Mo. […] (Cat # E7889; 0.5 M) • ^3H-Platelet Activating Factor, 1-O-Hexadecyl-[acetyl-^3H(N)], (^3H-PAF)-NEN Life Science Products, Roxbury, Mass. (Cat # NET-910, supplied as an ethanol solution, typically 0.1 mCi/mL; 250 uCi) • C16-PAF, (1-hexadecyl-2-acetyl-sn-glycero-3-phosphocholine): Avanti Polar Lipids, Alabaster, Ala. […] (Cat # T9159) Assay Buffer • 100 mM Hepes, pH 7.4 • 150 mM NaCl • 5 mM EDTA • Store it at room temperature Procedures • 1. Prepare a ^3H-PAF working solution (for 100 reactions): • a) Aliquot 480 μl ^3H-PAF (10 μM=0.1 mCi/ml at 10.0 Ci/mmol) and 125.3 μl of [C16]PAF (5.0 mg/ml; MW: 524) to a tube; • b) Mix and air dry in the hood; • c) Resuspend the dried pellets in 12.0 ml of assay buffer giving working solutions of 100 μM PAF (i.e. ^3H-PAF at 0.4 μM and cold [C16]PAF at 99.6 μM); • 2. Aliquot 5 μL of assay buffer (for Total counts and Blanks; n=8) or plasma samples in duplicates into a 96-well plate; • 3. Equilibrate the plate to 21° C.; • 4. Add 100 μL of the ^3H-PAF solution to each well, mix and incubate the plate at 21° C. for 5 minutes; • 5. […]; • 6. Add 25 μL of ice-cold TCA solution (56%) to each well, mix and incubate the plate in a refrigerator for 15 minutes; • 7. Centrifuge the plate at 6,000 g for 15 minutes at 4° C.; • 8. […] Add 10 μL of ^3H-PAF working solution to 6 Total Counts wells; • 10. […] Cover the plate with a plate tape and vortex mix at max speed for 10 minutes; • 12. […] Count with a TopCount scintillation counter for 2 minutes each; and • 14.

`COCCN1CCC(N(Cc2ccc(-c3ccc(C(F)(F)F)cc3)cc2)C(=O)Cn2c(SCc3cccc(F)c3F)cc(=O)c3ccccc32)CC1` [Formula I] was tested, and the “% Inhibition Drug-Sensitive Colorimetric” value (Lp-PLA2 [1]; 50 mg, 0.5 hr after dosing) was 16.91% and 18.69% and 26.95%, the “Lp-PLA2 Activity Drug-Sensitive Colorimetric” value (Lp-PLA2 [1]; 50 mg, 0.5 hr after dosing) was 89.99 nmol/min/mL and 69.79 nmol/min/mL and 81.70 nmol/min/mL and 32.96 nmol/min/mL and 141.14 nmol/min/mL and the “Lp-PLA2 Activity Drug-Sensitive Colorimetric” value (Lp-PLA2 [1]; 50 mg, 1 hr after dosing) was 17.15 nmol/min/mL and 39.10 nmol/min/mL and 24.96 nmol/min/mL and 22.46 nmol/min/mL and 37.07 nmol/min/mL. The “% Inhibition Drug-Sensitive Colorimetric” value (Lp-PLA2 [1]; 50 mg, 4 hr after dosing) was 85.71%, the “Lp-PLA2 Activity Drug-Sensitive Colorimetric” value (Lp-PLA2 [1]; 50 mg, 5 hr after dosing) was 20.74 nmol/min/mL and 31.77 nmol/min/mL and 16.58 nmol/min/mL and 15.83 nmol/min/mL and 18.35 nmol/min/mL and the “Lp-PLA2 Activity Drug-Sensitive Colorimetric” value (Lp-PLA2 [1]; 50 mg, 6 hr after dosing) was 23.71 nmol/min/mL and 66.08 nmol/min/mL and 21.01 nmol/min/mL and 25.84 nmol/min/mL and 25.12 nmol/min/mL. For the same compound, the “% Inhibition Drug-Sensitive Colorimetric” value (Lp-PLA2 [1]; 50 mg, 12 hr after dosing) was 60.73% and 36.04% and 55.61%, the “Lp-PLA2 Activity Drug-Sensitive Colorimetric” value (Lp-PLA2 [1]; 50 mg, 12 hr after dosing) was 34.83 nmol/min/mL and 76.84 nmol/min/mL and 111.00 nmol/min/mL and 53.72 nmol/min/mL and 44.60 nmol/min/mL and the “% Inhibition Drug-Sensitive Colorimetric” value (Lp-PLA2 [1]; 120 mg, 0.5 hr after dosing) was 88.89% and 85.22% and 45.29% and 41.39%. The “Lp-PLA2 Activity Drug-Sensitive Colorimetric” value (Lp-PLA2 [1]; 120 mg, 0.5 hr after dosing) was 31.08 nmol/min/mL and 20.14 nmol/min/mL and 19.87 nmol/min/mL and 63.95 nmol/min/mL and 64.40 nmol/min/mL, the “% Inhibition Drug-Sensitive Colorimetric” value (Lp-PLA2 [1]; 120 mg, 1 hr after dosing) was 88.85% and the “Lp-PLA2 Activity Drug-Sensitive Colorimetric” value (Lp-PLA2 [1]; 120 mg, 1 hr after dosing) was 19.69 nmol/min/mL and 23.29 nmol/min/mL and 14.99 nmol/min/mL and 30.22 nmol/min/mL and 18.74 nmol/min/mL. For the same compound, the “Lp-PLA2 Activity Drug-Sensitive Colorimetric” value (Lp-PLA2 [1]; 120 mg, 2 hr after dosing) was 19.69 nmol/min/mL and 19.54 nmol/min/mL and 12.22 nmol/min/mL and 29.51 nmol/min/mL and 10.11 nmol/min/mL, the “Lp-PLA2 Activity Drug-Sensitive Colorimetric” value (Lp-PLA2 [1]; 120 mg, 3 hr after dosing) was 13.17 nmol/min/mL and 20.61 nmol/min/mL and 15.08 nmol/min/mL and 30.49 nmol/min/mL and 11.51 nmol/min/mL and the “Lp-PLA2 Activity Drug-Sensitive Colorimetric” value (Lp-PLA2 [1]; 120 mg, 4 hr after dosing) was 7.30 nmol/min/mL and 21.27 nmol/min/mL and 16.18 nmol/min/mL and 29.42 nmol/min/mL and 11.21 nmol/min/mL. For the same compound, the “Lp-PLA2 Activity Drug-Sensitive Colorimetric” value (Lp-PLA2 [1]; 120 mg, 5 hr after dosing) was 22.94 nmol/min/mL and 21.36 nmol/min/mL and 18.14 nmol/min/mL and 35.46 nmol/min/mL and 12.22 nmol/min/mL, the “Lp-PLA2 Activity Drug-Sensitive Colorimetric” value (Lp-PLA2 [1]; 120 mg, 6 hr after dosing) was 20.65 nmol/min/mL and 21.39 nmol/min/mL and 18.74 nmol/min/mL and 39.29 nmol/min/mL and 17.01 nmol/min/mL and the “Lp-PLA2 Activity Drug-Sensitive Colorimetric” value (Lp-PLA2 [1]; 120 mg, 9 hr after dosing) was 27.16 nmol/min/mL and 27.87 nmol/min/mL and 26.18 nmol/min/mL and 50.81 nmol/min/mL and 21.03 nmol/min/mL. For the same compound, the “% Inhibition Radiometric” value (Lp-PLA2 [2]; 50 mg, 0.5 hr after dosing) was 22.34% and 17.17% and 25.59%, the “Lp-PLA2 Activity Radiometric” value (Lp-PLA2 [2]; 50 mg, 0.5 hr after dosing) was 65.24 nmol/min/mL and 50.18 nmol/min/mL and 78.40 nmol/min/mL and 22.46 nmol/min/mL and 104.52 nmol/min/mL and the “% Inhibition Radiometric” value (Lp-PLA2 [2]; 50 mg, 1 hr after dosing) was 77.76% and 60.11%. For the same compound, the “Lp-PLA2 Activity Radiometric” value (Lp-PLA2 [2]; 50 mg, 1 hr after dosing) was 15.85 nmol/min/mL and 26.80 nmol/min/mL and 18.68 nmol/min/mL and 10.60 nmol/min/mL and 30.87 nmol/min/mL, the “Lp-PLA2 Activity Radiometric” value (Lp-PLA2 [2]; 50 mg, 2 hr after dosing) was 10.00 nmol/min/mL and the “Lp-PLA2 Activity Radiometric” value (Lp-PLA2 [2]; 50 mg, 4 hr after dosing) was 10.02 nmol/min/mL and 20.76 nmol/min/mL and 14.37 nmol/min/mL and 11.47 nmol/min/mL. The “% Inhibition Radiometric” value (Lp-PLA2 [2]; 50 mg, 5 hr after dosing) was 86.07%, the “% Inhibition Radiometric” value (Lp-PLA2 [2]; 120 mg, 0.5 hr after dosing) was 64.75% and 81.63% and 44.97% and 33.96% and the “Lp-PLA2 Activity Radiometric” value (Lp-PLA2 [2]; 120 mg, 0.5 hr after dosing) was 35.83 nmol/min/mL and 25.97 nmol/min/mL and 16.07 nmol/min/mL and 39.68 nmol/min/mL and 58.09 nmol/min/mL. For the same compound, the “% Inhibition Radiometric” value (Lp-PLA2 [2]; 120 mg, 1 hr after dosing) was 88.66%, the “Lp-PLA2 Activity Radiometric” value (Lp-PLA2 [2]; 120 mg, 1 hr after dosing) was 10.00 nmol/min/mL and the “Lp-PLA2 Activity Radiometric” value (Lp-PLA2 [2]; 120 mg, 2 hr after dosing) was 10.00 nmol/min/mL. For the same compound, the “Lp-PLA2 Activity Radiometric” value (Lp-PLA2 [2]; 120 mg, 3 hr after dosing) was 14.09 nmol/min/mL and 12.80 nmol/min/mL and 10.00 nmol/min/mL (2×) and 21.08 nmol/min/mL and the “% Inhibition Radiometric” value (Lp-PLA2 [2]; 120 mg, 4 hr after dosing) was 90.91% and 72.94%.
